According to article PMC9758846, “Dinuclear and mononuclear metal(II) polypyridyl complexes against drug-sensitive and drug-resistant Plasmodium falciparum and their mode of action” (Malaria Journal, 2022):
Where “and” joins values, the source holds several entries; their conditions need not be identical. Equal entries are not always repeated. Where two headings read alike, the source gives them in different places.

Legend:
[1] = test system: B+ blood red blood cells (RBC); assay: In vitro haemolytic assay; type: cell-based, human; conditions: 72 h
Experimental: Fresh B+ blood was washed with RPMI1640 medium containing of 30 µg/mL gentamicin (Gibco) and centrifuged at 1000 xg for 10 min three times. The percentage of haemolysis was determined spectroscopically using 5% haematocrit containing test compound at increasing concentration and incubated for 72 h at 37 °C [19, 20]. Untreated blood acted as negative control while blood treated with sterile distilled water acted as positive control (for 100% haemolysis).

[2] = PNDA assay of •OH radicals from reaction with H2O2; conditions: for Concentration of •OH radical: 30 µM compound with excess H2O2; for Generation of ·OH radicals (in words): equimolar test compound with excess H2O2
Experimental: A previously reported spectrometric assay using PNDA was used to quantify the amount of reactive oxygen species (ROS), viz. •OH radicals, produced by the reaction of metal(II) complexes with hydrogen peroxide in borate buffer at pH 7.5 [24–26]. The percentage of PNDA bleaching and the concentration of •OH produced were determined.

[3] = test system: Plasmodium falciparum IPC5202 (Pf5202); assay: In vitro anti-malarial activity using SYBR Green I nucleic acid dye; type: cell-based; conditions: 72 h incubation, read-out: IC50 of Pf5202
Experimental: (§1) The drug-sensitive strain of P. falciparum 3D7 (Pf3D7) was obtained from the Department of Science, Monash University, Malaysia and cultured as previously described. The artemisinin-resistant strain of P. falciparum IPC5202 (Pf5202) was obtained from BEI Resources and cultured as mentioned in the product sheet. Both strains were maintained in sealed flask at 37 °C in a humidified atmosphere of 5% O2, 5% CO2 and 90% N2. All buffer stock solutions for biological assays were autoclaved at 121 °C for 15 min.
(§2) Previously reported anti-malarial assay was used with slight modification using 1% parasitaemia (ring-stage) and 5% haematocrit treated with test compounds at increasing concentration and incubated for 72 h at 37 °C [21–23]. After the incubation, the assay was terminated by freeze/thaw cycle (− 80 °C overnight before thawing for 2 h) before the addition of lysis buffer containing SYBR Green I dye into each well and mixed thoroughly using the belly dancer for 30 min in the dark. Chloroquine diphosphate salt and artemisinin were used as standard drugs. The fluorescence signal was quantified at 485 nm excitation wavelength and 528 nm emission wavelength. IC50 values of each test compound was determined from a dose response curve by non-linear regression analysis.

[4] = test system: Plasmodium falciparum 3D7 (Pf3D7); assay: as above; type: cell-based; conditions: 72 h incubation, read-out: IC50 of Pf3D7
Experimental: as §1, §2

[5] = target: Pf5202 20S proteasome caspase-like (C-L) site (Plasmodium falciparum, UniProt Q8I0U7); assay: 20S proteasome inhibition assay using parasite lysate; type: biochemical; conditions: Suc-LLE-AMC, 30 min
Experimental: (§3) To harvest P. falciparum parasites, intraerythrocytic Pf3D7 and Pf5202 were collected in trophozoite and early schizont stages. Red blood cells were lysed in 0.15% (w/v) saponin lysis buffer for 10 min at 37 °C. After lysis, the parasite pellet was washed once with PBS buffer by centrifuging at 1600 rpm for 5 min. Saponin lysis buffer was added once again to remove all the red blood cells for 10 min at 37 °C, followed by washing with PBS twice and immediately used or kept at − 80 °C. To prepare parasite lysates for proteasome purification, parasite pellet was resuspended with 100 µl of pre-cooled Pierce™ RIPA buffer. A mild protein extraction method was used to prepare parasite extracts. The resuspended parasites were passed 20 times through a needle with a diameter of 0.4 mm in a syringe on ice to lyse the parasite. After 15 min centrifugation at 13,000 xg at 4 °C, the supernatant was removed. Protein concentration was determined by the Bradford assay. The activities of 3 proteolytic sites were determined by fluorescence assay using fluorogenic peptide substrates (Suc-LLVY-AMC for chymotrypsin-like, Boc-LRR-AMC for trypsin-like and Suc-LLE-AMC for caspase-like) Proteasome activities were determined by monitoring the substrate hydrolysis for 30 min at 37 °C with 340 nm excitation and 465 nm emission wavelength. Activity of each proteolytic site were calculated, and the IC50 values were determined from the non-linear regression analysis. VR23 proteasome inhibitor was used as positive control.

[6] = target: Pf3D7 20S proteasome trypsin-like (T-L) site (Plasmodium falciparum, UniProt Q8I6T3); assay: as above; type: biochemical; conditions: Boc-LRR-AMC, 30 min
Experimental: as §3

[7] = target: Pf5202 20S proteasome trypsin-like (T-L) site (Plasmodium falciparum, UniProt Q8I6T3); assay: as above; type: biochemical; conditions: for IC50: parasite lysate, Boc-LRR-AMC, 30 min
Experimental: as §3

[8] = target: Pf5202 20S proteasome chymotrypsin-like (CT-L) site (Plasmodium falciparum, UniProt Q8IJT1); assay: as above; type: biochemical; conditions: Suc-LLVY-AMC, 30 min
Experimental: as §3

[9] = target: Pf3D7 20S proteasome caspase-like (C-L) site (Plasmodium falciparum, UniProt Q8I0U7); assay: as above; type: biochemical; conditions: Suc-LLE-AMC, 30 min
Experimental: as §3

[10] = target: Pf3D7 20S proteasome chymotrypsin-like (CT-L) site (Plasmodium falciparum, UniProt Q8IJT1); assay: as above; type: biochemical; conditions: Suc-LLVY-AMC, 30 min
Experimental: as §3

Pf3D7 = assay: Intracellular ROS level using DCFH-DA; type: cell-based, Plasmodium falciparum
Experimental: (§4) After incubation, packed cells were washed with phosphate buffer saline (PBS) solution. […] The data was expressed as fold change between amount of ROS produced by treated P. falciparum against untreated P. falciparum. Normalization was done with the percentage of parasite viability obtained at each condition. Hydrogen peroxide was used as positive control.

Pf5202 = assay: Intracellular ROS level using DCFH-DA; type: cell-based, Plasmodium falciparum
Experimental: as §4

Chain of Pf3D7 20S proteasome caspase-like (C-L) site (Q8I6T3 entry or part of it): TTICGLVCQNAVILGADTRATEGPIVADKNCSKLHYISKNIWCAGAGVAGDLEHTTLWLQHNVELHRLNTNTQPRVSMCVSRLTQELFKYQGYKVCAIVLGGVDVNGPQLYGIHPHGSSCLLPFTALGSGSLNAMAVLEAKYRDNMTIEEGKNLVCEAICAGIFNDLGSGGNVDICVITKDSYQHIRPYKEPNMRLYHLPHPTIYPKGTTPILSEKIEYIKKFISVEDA
Chain of Pf3D7 20S proteasome caspase-like (C-L) site (Q8I0U7 entry or part of it): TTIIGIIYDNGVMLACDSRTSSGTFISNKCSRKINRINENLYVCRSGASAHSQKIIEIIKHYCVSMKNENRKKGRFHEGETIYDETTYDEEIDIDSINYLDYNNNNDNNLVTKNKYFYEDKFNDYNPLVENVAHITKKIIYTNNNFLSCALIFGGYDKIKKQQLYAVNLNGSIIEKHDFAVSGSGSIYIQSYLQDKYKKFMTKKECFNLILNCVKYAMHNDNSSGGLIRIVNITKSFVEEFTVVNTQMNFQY
Chain of Pf5202 20S proteasome trypsin-like (T-L) site (Q8I6T3 entry or part of it): as the sequence (Q8I6T3 entry or part of it) above
Chain of Pf3D7 20S proteasome trypsin-like (T-L) site (Q8I6T3 entry or part of it): as above
Chain of Pf3D7 20S proteasome chymotrypsin-like (CT-L) site (Q8IJT1 entry or part of it): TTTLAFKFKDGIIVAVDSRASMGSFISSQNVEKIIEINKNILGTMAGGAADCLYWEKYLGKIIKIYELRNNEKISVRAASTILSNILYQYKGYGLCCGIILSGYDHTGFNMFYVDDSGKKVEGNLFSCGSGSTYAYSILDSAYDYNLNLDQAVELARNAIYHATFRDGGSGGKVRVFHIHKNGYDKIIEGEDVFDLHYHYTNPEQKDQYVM
Chain of Pf5202 20S proteasome chymotrypsin-like (CT-L) site (Q8IJT1 entry or part of it): as above
Chain of Pf5202 20S proteasome caspase-like (C-L) site (Q8I0U7 entry or part of it): as the sequence (Q8I0U7 entry or part of it) above
Chain of Pf5202 20S proteasome caspase-like (C-L) site (Q8I6T3 entry or part of it, further chain): as the sequence (Q8I6T3 entry or part of it) above

Compound	Concentration of •OH radical ([2]; 24 h) [µM]	Concentration of •OH radical ([2]; 48 h) [µM]	Concentration of •OH radical ([2]; 72 h) [µM]	IC50 [3] [µM]	IC50 [4]	IC50 [5] [µM]	IC50 [6] [µM]	IC50 [7] [µM]	IC50 [8] [µM]	IC50 [9] [µM]	IC50 [10] [µM]	Generation of ·OH radicals (in words) [2]	fold change in ROS (Pf3D7; 48 h, 0.2 µM) [fold]	fold change in ROS (Pf3D7; 48 h, 1.0 µM) [fold]	fold change in ROS (Pf3D7; 48 h, 5.0 µM) [fold]	fold change in ROS (Pf3D7; 48 h, 25.0 µM) [fold]	fold change in ROS (Pf5202; 24 h, 1.0 µM) [fold]	fold change in ROS (Pf5202; 48 h, 5.0 µM) [fold]	fold change in ROS (Pf5202; 48 h, 25.0 µM) [fold]	fold change in ROS (Pf5202; 72 h, 1.0 µM) [fold]	also measured
O.O.O.O=[N+]([O-])[O-].O=[N+]([O-])[O-].[Cu+2] [Cu(NO3)2·3H2O, Copper(II) nitrate trihydrate, reference compound]	36.29 ± 1.80	33.20 ± 1.62	29.82 ± 1.60	49.4 ± 2.3	46.1 ± 4.29 µM																Percentage of haemolysis (haemolytic index, HI) ([1]; 1 µM, B+ blood): 3%; Concentration of •OH radical ([2]; 2 h): 14.59 ± 2.39 µM; Concentration of •OH radical ([2]; 4 h): 19.27 ± 2.36 µM; IC50 ([3]; listed as copper(II) nitrate): ~49 µM; IC50 ([4]; listed as copper(II) nitrate): ~46 µM
O=[N+]([O-])c1ccc(S(=O)(=O)N2CCN(c3ccnc4cc(Cl)ccc34)CC2)c([N+](=O)[O-])c1 [VR23, reference compound]						> 5	0.78 ± 0.11	0.86 ± 0.09	> 5	> 5	> 5										
O.O.O.O.O.O.O=[N+]([O-])[O-].O=[N+]([O-])[O-].[Zn+2] [Zn(NO3)2·6H2O, Zinc(II) nitrate hexahydrate]				> 100	> 100 µM							did not generate any ·OH radicals									
c1cnc2c(c1)ccc1cccnc12 [phen, 1,10-phenanthroline, reference compound]	0.15 ± 0.07	0.36 ± 0.17	0.30 ± 0.23				4.47 ± 0.6	1.79 ± 0.66		> 25		did not generate any ·OH radicals	3.10 ± 0.98	2.91 ± 0.05	4.47 ± 0.71	6.09 ± 0.91	1.08 ± 0.09	1.40 ± 0.13	1.32 ± 0.31	1.17 ± 0.44	Factor by which T-L site of Pf5202 is inhibited better than that of Pf3D7 ([7]; ratio of T-L IC50 values): about 2.5 ×; fold change in ROS (Pf5202; 24 h, 0.2 µM): 1.06 ± 0.06 fold; fold change in ROS (Pf5202; 24 h, 5.0 µM): 0.91 ± 0.05 fold; fold change in ROS (Pf5202; 24 h, 25.0 µM): 0.80 ± 0.04 fold; fold change in ROS (Pf5202; 48 h, 0.2 µM): 1.78 ± 0.78 fold; fold change in ROS (Pf5202; 48 h, 1.0 µM): 1.31 ± 0.21 fold; fold change in ROS (Pf5202; 72 h, 0.2 µM): 1.35 ± 0.71 fold; fold change in ROS (Pf5202; 72 h, 5.0 µM): 1.08 ± 0.51 fold; fold change in ROS (Pf5202; 72 h, 25.0 µM): 1.21 ± 1.25 fold; IC50 ([3]; Plasmodium falciparum): > 100 µM; IC50 ([4]; Plasmodium falciparum, 3D7): 4.27 ± 0.05 µM
[Zn(phen)(NO3)-4,4′-bipy-Zn(phen)(NO3)](NO3)2·2H2O [Complex 4]				> 100	3.9 µM and 3.93 µM	> 25	> 25	> 25	> 25	> 25	> 25	did not generate any ·OH radicals	0.52 ± 0.26	0.77 ± 0.58	0.85 ± 0.40	0.42 ± 0.19	0.44 ± 0.25	0.43 ± 0.09	0.39 ± 0.36	0.45 ± 0.32	Haemolysis on B+ blood (in words) ([1]; up to 25 µM): no haemolysis; fold change in ROS (Pf3D7; 24 h, 25.0 µM): 0.31 ± 0.31 fold; fold change in ROS (Pf3D7; 72 h, 0.2 µM): 1.52 ± 0.07 fold; fold change in ROS (Pf3D7; 72 h, 1.0 µM): 1.52 ± 0.14 fold; fold change in ROS (Pf3D7; 72 h, 5.0 µM): 1.85 ± 0.27 fold; fold change in ROS (Pf3D7; 72 h, 25.0 µM): 1.19 ± 0.57 fold; fold change in ROS (Pf5202; 72 h, 5.0 µM): 0.33 ± 0.01 fold; fold change in ROS (Pf5202; 72 h, 25.0 µM): 0.13 ± 0.05 fold
